Laboratory results: US20040057908A1, “Oral compositions and use thereof” (priority 2003, published 2004)
Converted amounts (≈) assume the structure as drawn. Where two headings read alike, the source gives them in different places.

Columns and labels:
[1] = system: Mutans Streptococci Strains; assay: MIC and MBC, broth dilution, all strains stated together; type: cell-based, S. mutans (GS-5 and UA159) and S. sobrinus 6715
Method: (§1) The minimum inhibitory concentration (MIC) and minimum bactericidal concentration (MBC) were determined for each test compound according to the National Committee for Clinical Laboratory Standards guidelines (Tentative standard M26-T, 1992; NCCLS Publication No. M7-A5, 2000) and Koo et al. (2000b). The broth microdilution and macrodilution methods (in TSB) were used for the antibacterial tests. The starting inoculum was 5×10^5 CFU/ml and the concentrations of test compounds ranged from 15.6 to 500 μM (two-fold dilutions). The MICs and MBCs were determined in quadruplicate in at least 3 different experiments.

[2] = system: Streptococcus mutans UA 159; assay: MIC and MBC, broth dilution; type: cell-based
Method: as §1

[3] = system: Streptococcus mutans GS-5; assay: MIC and MBC, broth dilution; type: cell-based
Method: as §1

[4] = system: Streptococcus sobrinus 6715; assay: MIC and MBC, broth dilution; type: cell-based; conditions: Streptococcus sobrinus 6715
Method: as §1

[5] = system: T1, streptococcal GTFs; assay: GTF activity in solution, all GTFs (B, C, D, Ss) stated together; type: biochemical, Streptococcus mutans, S. sanguinis; conditions: 125 to 500 μM; solution and surface not told apart
T1 construct: Streptococcus milleri KSB8, which harbors the gtfB gene from S. mutans GS-5 (for GTF B production)
Method: The GTF enzyme added to each sample for all assays was equivalent to the amount required to incorporate 1.0-1.5 μmol of glucose over the four hours reaction (1.0-1.5 units).
The samples were incubated 37° C. with rocking for 4 h.
For this assay, a one-way layout experimental design was used in 4×2×7 factorial scheme (enzyme×state×dose). An analysis of variance was carried out and qualitative treatments were compared using Tukey test at level of 5% of significance (p<0.05). A non-linear regression was applied in order to evaluate effects of different concentrations.

[6] = molecular target: T2, GTF Ss (Streptococcus sanguinis, UniProt A3CLJ9); assay: GTF activity in solution, GTF Ss; type: biochemical, S. sanguinis; conditions: read-out: GTF Ss sol. % of Inhib.
Method: (§2) Glucosyltransferase activity was measured by the incorporation of [^14C-glucose] from labeled sucrose (NEN Research Products, Boston, Mass.) into glucans (Germaine et al., 1974; Venkitaraman et al., 1995). The GTF enzyme added to each sample for all assays was equivalent to the amount required to incorporate 1.0-1.5 μmol of glucose over the four hours reaction (1.0-1.5 units).
(§3) For solution assays, purified GTF B, C, D and Ss were mixed with a two-fold dilution series of the test compounds (concentration ranging from 125 to 500 μM) and incubated with [^14C-glucose]-sucrose substrate (0.2 μCi/ml) (200.0 mmol/l sucrose, 40 μmol/l dextran 9000, 0.02% sodium azide in adsorption buffer—50 mM KCl, 1.0 mM KPO4, 1.0 mM CaCl2, 0.1 mM MgCl2−pH=6.5) to reach a final concentration of 100 mmol/l sucrose (200 μl final volume). For the control, the same reaction was carried out, where ethanol:DMSO (final concentration of 7.5% and 1.25%, v/v) or ethanol (final concentration of 5%, v/v) replaced the test agent solutions. The samples were incubated 37° C. with rocking for 4 h. After incubation, ice-cold ethanol (1.0 ml) was added and the samples were stored for 18 h, 4° C. for precipitation of glucans. Radiolabeled glucan was determined by scintillation counting (Germaine et al., 1974; Venkitaraman et al., 1995).

[7] = molecular target: T3, GTF D (Streptococcus mutans serotype c, UniProt P49331); assay: GTF activity in solution, GTF D; type: biochemical; conditions: read-out: GTF D sol. % of Inhib.
T3 construct: made in house; host or cells: Streptococcus milleri NH5 (culture supernatant)
T3 sequence (P49331 whole entry): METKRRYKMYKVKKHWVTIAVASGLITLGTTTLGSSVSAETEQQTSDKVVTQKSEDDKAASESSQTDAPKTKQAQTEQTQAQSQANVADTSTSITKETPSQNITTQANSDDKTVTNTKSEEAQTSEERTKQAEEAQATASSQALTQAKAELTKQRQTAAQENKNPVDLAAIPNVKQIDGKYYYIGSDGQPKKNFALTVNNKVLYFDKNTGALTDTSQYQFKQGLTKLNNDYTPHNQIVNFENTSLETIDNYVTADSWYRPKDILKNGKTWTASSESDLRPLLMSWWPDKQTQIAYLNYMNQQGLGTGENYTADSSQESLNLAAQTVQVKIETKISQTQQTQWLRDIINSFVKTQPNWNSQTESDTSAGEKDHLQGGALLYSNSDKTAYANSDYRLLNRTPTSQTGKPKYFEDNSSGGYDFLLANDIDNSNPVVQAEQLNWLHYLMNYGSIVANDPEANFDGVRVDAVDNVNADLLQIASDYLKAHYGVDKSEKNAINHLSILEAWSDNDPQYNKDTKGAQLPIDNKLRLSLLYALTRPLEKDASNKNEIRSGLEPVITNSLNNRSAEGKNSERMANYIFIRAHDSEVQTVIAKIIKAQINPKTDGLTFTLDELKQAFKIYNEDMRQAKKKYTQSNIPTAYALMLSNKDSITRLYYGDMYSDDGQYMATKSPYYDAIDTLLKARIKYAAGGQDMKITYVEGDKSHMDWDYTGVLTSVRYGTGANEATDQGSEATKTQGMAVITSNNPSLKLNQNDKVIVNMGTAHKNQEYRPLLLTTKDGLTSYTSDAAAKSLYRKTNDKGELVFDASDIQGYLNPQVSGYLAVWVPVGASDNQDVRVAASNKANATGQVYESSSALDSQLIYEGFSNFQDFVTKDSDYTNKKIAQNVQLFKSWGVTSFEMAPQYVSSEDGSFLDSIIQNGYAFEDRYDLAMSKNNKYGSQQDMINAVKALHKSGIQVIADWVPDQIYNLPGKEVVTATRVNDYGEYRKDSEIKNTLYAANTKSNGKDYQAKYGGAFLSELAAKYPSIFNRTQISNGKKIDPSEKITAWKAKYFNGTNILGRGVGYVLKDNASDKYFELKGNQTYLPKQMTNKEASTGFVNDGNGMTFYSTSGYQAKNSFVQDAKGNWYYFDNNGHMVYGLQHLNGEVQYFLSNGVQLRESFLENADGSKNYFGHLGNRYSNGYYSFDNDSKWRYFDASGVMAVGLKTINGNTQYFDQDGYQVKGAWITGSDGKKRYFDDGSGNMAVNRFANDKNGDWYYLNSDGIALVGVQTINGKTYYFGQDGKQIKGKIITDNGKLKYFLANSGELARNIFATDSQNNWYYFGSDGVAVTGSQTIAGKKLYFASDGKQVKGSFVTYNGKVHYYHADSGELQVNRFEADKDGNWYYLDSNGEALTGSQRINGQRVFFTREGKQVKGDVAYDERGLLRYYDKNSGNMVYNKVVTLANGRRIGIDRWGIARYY
Method: as §2, §3

[8] = molecular target: T2, GTF Ss; assay: GTF activity adsorbed onto sHA surface, GTF Ss; type: biochemical, S. sanguinis; conditions: read-out: GTF Ss surf. % of Inhib.
Method: as §2
(§4) For surface assays, the GTFs were adsorbed to hydroxyapatite beads coated with clarified whole saliva (free of GTF activity), as detailed elsewhere (Koo et al., 2000c; Schilling and Bowen, 1988, Venkitaraman et al., 1995). The saliva-coated hydroxyapatite (sHA) beads were exposed to sufficient enzyme to saturate the surface as determined experimentally. Following the adsorption of the enzyme, the beads were washed 3 times with buffer to remove the loosely bound material and exposed to 300 μl of the two-fold dilution series of test compounds (or control) for 30 min. at the same concentrations described above. The beads were washed and exposed to 300 μl [^14C-glucose]-sucrose substrate (100.0 mmol/l sucrose, final concentration). The radiolabeled glucan formed was collected and quantified by scintillation counting (Germaine et al., 1974; Venkitaraman et al., 1995). All the solution and surface assays were done in quadruplicate in at least 3 different experiments.

[9] = molecular target: T4, GTF C (Streptococcus mutans serotype c, UniProt P13470); assay: GTF activity adsorbed onto sHA surface, GTF C; type: biochemical; conditions: read-out: GTF C surf. % of Inhib.
T4 construct: The supernatant was carefully collected as the source of GTF C; made in house; host or cells: Streptococcus mutans WHB 410 (endogenous gtfC; urea/Triton extract of washed cells, hydroxyapatite chromatography)
T4 sequence (P13470 35-1455): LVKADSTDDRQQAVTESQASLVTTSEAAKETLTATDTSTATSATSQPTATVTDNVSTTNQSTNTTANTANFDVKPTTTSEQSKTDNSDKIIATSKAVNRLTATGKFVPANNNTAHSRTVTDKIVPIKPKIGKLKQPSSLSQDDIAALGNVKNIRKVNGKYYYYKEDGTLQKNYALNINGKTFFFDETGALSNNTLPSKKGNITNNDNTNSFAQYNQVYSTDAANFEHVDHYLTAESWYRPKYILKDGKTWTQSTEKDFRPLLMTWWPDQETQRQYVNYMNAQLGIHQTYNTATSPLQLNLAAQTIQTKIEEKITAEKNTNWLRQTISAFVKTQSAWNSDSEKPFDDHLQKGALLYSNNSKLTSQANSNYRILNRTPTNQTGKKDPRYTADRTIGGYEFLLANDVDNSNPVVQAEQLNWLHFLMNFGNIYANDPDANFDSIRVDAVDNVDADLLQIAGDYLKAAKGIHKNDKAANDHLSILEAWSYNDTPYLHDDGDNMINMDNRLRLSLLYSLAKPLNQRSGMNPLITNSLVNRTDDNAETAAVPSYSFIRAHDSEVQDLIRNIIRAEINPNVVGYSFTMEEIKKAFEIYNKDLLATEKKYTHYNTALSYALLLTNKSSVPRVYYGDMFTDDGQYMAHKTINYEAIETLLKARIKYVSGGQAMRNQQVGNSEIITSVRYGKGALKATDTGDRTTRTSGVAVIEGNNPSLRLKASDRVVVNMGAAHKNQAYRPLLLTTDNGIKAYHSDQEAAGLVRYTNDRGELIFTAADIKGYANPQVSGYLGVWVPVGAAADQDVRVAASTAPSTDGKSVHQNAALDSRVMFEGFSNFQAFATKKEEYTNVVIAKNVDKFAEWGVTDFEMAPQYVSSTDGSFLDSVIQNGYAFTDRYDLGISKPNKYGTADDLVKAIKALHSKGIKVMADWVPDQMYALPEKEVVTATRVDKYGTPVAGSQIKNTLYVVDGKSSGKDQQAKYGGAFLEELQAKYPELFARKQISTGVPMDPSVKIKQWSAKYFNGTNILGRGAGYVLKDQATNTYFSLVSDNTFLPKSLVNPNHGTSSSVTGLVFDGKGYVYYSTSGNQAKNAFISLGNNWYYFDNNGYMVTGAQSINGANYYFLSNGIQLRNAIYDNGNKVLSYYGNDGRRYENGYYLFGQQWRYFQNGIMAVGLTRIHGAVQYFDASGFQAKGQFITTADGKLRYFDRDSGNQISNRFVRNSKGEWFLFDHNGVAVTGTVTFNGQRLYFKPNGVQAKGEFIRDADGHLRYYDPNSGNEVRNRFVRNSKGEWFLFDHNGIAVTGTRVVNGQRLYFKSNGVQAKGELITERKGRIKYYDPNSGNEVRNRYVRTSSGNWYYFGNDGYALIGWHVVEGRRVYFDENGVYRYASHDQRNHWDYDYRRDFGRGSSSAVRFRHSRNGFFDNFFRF
Method: as §2, §4

[10] = molecular target: T3, GTF D; assay: GTF activity adsorbed onto sHA surface, GTF D; type: biochemical; conditions: read-out: GTF D surf. % of Inhib.
Method: as §2, §4

[11] = molecular target: T5, GTF B (Streptococcus mutans serotype c, UniProt P08987); assay: GTF activity in solution, GTF B; type: biochemical; conditions: read-out: GTF B sol. % of Inhib.
T5 construct: made in house; host or cells: Streptococcus milleri KSB8 (culture supernatant)
T5 sequence (P08987 35-1476): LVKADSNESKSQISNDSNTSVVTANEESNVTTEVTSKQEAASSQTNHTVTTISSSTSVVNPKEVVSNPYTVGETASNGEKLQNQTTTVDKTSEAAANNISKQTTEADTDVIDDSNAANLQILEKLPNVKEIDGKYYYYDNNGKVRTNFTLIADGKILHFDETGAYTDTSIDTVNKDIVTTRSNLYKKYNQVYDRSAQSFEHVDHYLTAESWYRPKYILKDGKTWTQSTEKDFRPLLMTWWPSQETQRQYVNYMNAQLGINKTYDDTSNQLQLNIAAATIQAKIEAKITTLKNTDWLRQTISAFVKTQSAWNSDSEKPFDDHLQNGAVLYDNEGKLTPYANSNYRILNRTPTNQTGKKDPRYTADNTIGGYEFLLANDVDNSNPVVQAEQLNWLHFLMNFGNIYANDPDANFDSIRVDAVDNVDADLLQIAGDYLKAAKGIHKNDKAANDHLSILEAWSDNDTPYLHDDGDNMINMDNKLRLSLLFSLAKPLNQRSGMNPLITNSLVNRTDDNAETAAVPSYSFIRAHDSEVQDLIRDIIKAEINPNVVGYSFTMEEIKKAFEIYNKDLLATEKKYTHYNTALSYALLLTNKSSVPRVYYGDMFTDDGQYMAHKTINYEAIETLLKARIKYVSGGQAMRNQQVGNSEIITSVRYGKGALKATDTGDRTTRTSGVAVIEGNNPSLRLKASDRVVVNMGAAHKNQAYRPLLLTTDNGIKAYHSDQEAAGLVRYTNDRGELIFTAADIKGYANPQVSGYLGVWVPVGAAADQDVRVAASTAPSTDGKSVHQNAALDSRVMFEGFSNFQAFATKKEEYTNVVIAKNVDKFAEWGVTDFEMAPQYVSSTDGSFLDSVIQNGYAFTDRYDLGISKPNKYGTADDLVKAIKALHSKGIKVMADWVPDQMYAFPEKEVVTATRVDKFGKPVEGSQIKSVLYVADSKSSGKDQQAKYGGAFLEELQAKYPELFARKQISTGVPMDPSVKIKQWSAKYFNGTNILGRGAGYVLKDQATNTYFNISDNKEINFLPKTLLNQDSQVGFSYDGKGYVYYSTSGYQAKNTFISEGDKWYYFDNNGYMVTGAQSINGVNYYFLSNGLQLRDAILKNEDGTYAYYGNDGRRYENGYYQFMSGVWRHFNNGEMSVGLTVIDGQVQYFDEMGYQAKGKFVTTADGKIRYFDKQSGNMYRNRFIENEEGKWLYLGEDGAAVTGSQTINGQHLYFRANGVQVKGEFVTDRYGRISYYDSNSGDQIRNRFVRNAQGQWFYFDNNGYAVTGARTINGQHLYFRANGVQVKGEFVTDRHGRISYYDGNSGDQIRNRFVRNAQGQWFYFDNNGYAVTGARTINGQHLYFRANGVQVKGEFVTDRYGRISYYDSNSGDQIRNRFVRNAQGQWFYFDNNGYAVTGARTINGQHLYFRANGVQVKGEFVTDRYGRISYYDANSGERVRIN
Method: as §2, §3

[12] = molecular target: T4, GTF C; assay: GTF activity in solution, GTF C; type: biochemical; conditions: read-out: GTF C sol. % of Inhib.
Method: as §2, §3

[13] = molecular target: T5, GTF B; assay: GTF activity adsorbed onto saliva-coated hydroxyapatite (sHA) surface, GTF B; type: biochemical; conditions: read-out: GTF B surf. % of Inhib.
Method: as §2, §4

**Q.** Which MIC ([1]; all strains tested (S. mutans GS-5, UA159, S. sobrinus 6715), read-out: MIC) does the source give for `O=c1cc(-c2ccccc2)oc2cc(O)c(O)c(O)c12` [Baicalein] here?
**A.** 500 µM (≈ 135 µg/mL)

**Q.** And the MBC [2]?
**A.** >500 µM

**Q.** And the MIC [2]?
**A.** 500 µM (≈ 135 µg/mL)

**Q.** And the MBC [3]?
**A.** >500 µM

**Q.** And the MIC [3]?
**A.** 500 µM (≈ 135 µg/mL)

**Q.** What about the MBC [4] of the same compound?
**A.** >500 µM

**Q.** And the MIC [4]?
**A.** 500 µM (≈ 135 µg/mL)

**Q.** What does the source list for `O=C(O)c1ccc(O)c(O)c1` [Protocatechuic acid]?
**A.** MIC ([1]; Streptococcus mutans): > 500 µM; effects on GTF enzymes (in words) [5]: enhanced

**Q.** Which results are given for `O=c1c(O)c(-c2ccc(O)cc2)oc2cc(O)cc(O)c12` [Kaempferol]?
**A.** MIC ([1]; Streptococcus mutans): > 500 µM; inhibition at 125 µM [6]: 37.6%; inhibition at 250 µM [6]: 43.1%; inhibition at 500 µM [6]: 88.9%; inhibition at 125 µM [7]: 39.1%; inhibition at 250 µM [7]: 76.7%; inhibition at 500 µM [7]: 86.7%; inhibition at 125 µM [8]: 9.7%; inhibition at 250 µM [8]: 8.8%; inhibition at 500 µM [8]: 19.2%; inhibition at 125 µM [9]: 24.2%; inhibition at 250 µM [9]: 25.8%; inhibition at 500 µM [9]: 35.2%; inhibition at 125 µM [10]: 20.4%; inhibition at 250 µM [10]: 23.5%; inhibition at 500 µM [10]: 28.5%; inhibition at 125 µM [11]: 32.4%; inhibition at 250 µM [11]: 80.6%; inhibition at 500 µM [11]: 90.4%; inhibition at 125 µM [12]: 41.9%; inhibition at 250 µM [12]: 82.2%; inhibition at 500 µM [12]: 90.2%; inhibition at 125 µM [13]: 9.9%; inhibition at 250 µM [13]: 27.8%; inhibition at 500 µM [13]: 40.2%
